Measurements from patent US7605272B2, “IGF-1R inhibitor” (Kyowa Hakko Kirin Co., Ltd., priority 2005, dated 2009).
Structures can show the parent of a compound that is named as a salt.

Legend:
[1] = test system: NCI-H929; test: Cytostatic activity on human multiple myeloma cell line NCI-H929 (WST-1); assay type: cell-based; conditions: 72 hours; for inhibition at 10 µM / inhibition at 1 µM: Homo sapiens, NCI-H929, 72 h; for inhibition at 10 µM: 10 μmol/L, read-out: cytostatic rate (%) H929 (10 μmol/L); for inhibition at 1 µM: read-out: cytostatic rate (%) H929 (1 μmol/L)
Method: (§1) The cytostatic rates of a test compound on human multiple myeloma cell lines NCI-H929 and KMS-11, were determined in the following manner.
(§2) For culturing NCI-H929, Roswell Park Memorial Institute's Medium (RPMI) 1640 (Gibco, Catalog No. 11875-093) containing 15% fetal bovine serum (Gibco, Catalog No. 10099-141), 1 mmol/L sodium pyruvate (Gibco, Catalog No. 11360-070), 10 mmol/L HEPES (Gibco, Catalog No. 15630-80), 4.5 g/L glucose (Sigma, Catalog No. G8769), 0.05 mmol/L 2-mercaptethanol (Nacalai Tesque, Catalog No. 21418-42) and penicillin/streptomycin (1:1) (Gibco, Catalog No. 15140-122) was used. For culturing KMS-11 cell, RPMI 1640 medium containing 10% fetal bovine serum and penicillin/streptomycin (1:1) was used. Each 80 μL of the NCI-H929 cell having a concentration of 1×10^5 cells/mL (or the KMS-11 cell having a concentration of 7.5×10^4 cells/mL) was inoculated to wells of a TC MICROWELL 96U plate (Nalge Nunc International, Catalog No. 163320) and was cultured in a 5% carbon dioxide gas incubator at 37° C. for 24 hours. Each 20 μL of a solution of the test compound in dimethyl sulfoxide (DMSO) which was prepared to make the final concentration to 1 μmol/L or 10 μmol/L, was added to each well. Each 20 μL of DMSO was added to the control well and the blank well to a final concentration of 0.1%. After adding the test compound, the cells were incubated in a 5% carbon dioxide gas incubator at 37° C. for 72 hours except for the blank well. After adding 20 μL of WST-1 reagent {4-[3-(4-iodophenyl)-2-(4-nitrophenyl)-2H-5-tetrazolio]-1,3-benzene disulfonate sodium salt} (Roche Diagnostics K.K., Catalog No. 1644807), which was diluted to 50% by RPMI medium to each well, the cells were further incubated at 37° C. for 2 hours. Then, the absorbances at 450 nm (reference wavelength: 690 nm) were measured with a microplate spectrophotometer SPECTRA max 340PC (Molecular Devices Corporation). The relative growth (%) of a well to which the test compound had been added and cultured for 72 hours was determined while setting the absorbance of a well to which not the test compound but DMSO alone had been added and cultured for 72 hours (control) as 100% and that of a well where the drugs are added (blank) as 0%. The cytostatic rate (%) of the test compound was determined by subtracting the calculated relative growth from 100.

[2] = test system: KMS-11; test: Cytostatic activity on human multiple myeloma cell line KMS-11 (WST-1); assay type: cell-based; conditions: 72 hours; for inhibition at 10 µM / inhibition at 1 µM: Homo sapiens, KMS-11, 72 h; for inhibition at 10 µM: 10 μmol/L, read-out: cytostatic rate (%) KMS-11 (10 μmol/L); for inhibition at 1 µM: read-out: cytostatic rate (%) KMS-11 (1 μmol/L)
Method: as §1, §2

[3] = target: T1, IGF-1R (Homo sapiens, UniProt P08069); test: IGF-1R inhibitory activity (kinase reaction, time-resolved fluoroimmunoassay); assay type: biochemical; conditions: test compound 10 μmol/L
T1 construct: purchased Upstate Co. 14-465
T1 sequence (P08069 959-1367 limits assumed): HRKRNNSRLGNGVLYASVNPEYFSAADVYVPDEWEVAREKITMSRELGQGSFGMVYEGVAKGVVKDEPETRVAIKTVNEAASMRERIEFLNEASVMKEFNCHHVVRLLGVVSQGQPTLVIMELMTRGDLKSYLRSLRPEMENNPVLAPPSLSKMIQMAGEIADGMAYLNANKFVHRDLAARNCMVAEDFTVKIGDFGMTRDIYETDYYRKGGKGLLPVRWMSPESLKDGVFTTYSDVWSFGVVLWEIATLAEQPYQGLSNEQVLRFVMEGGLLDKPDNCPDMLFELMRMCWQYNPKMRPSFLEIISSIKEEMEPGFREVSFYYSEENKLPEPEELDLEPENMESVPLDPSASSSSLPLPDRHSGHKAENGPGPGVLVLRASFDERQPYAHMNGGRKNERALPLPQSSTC
Summary of the method: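 Compounds were tested at a single 10 μmol/L concentration. Each was incubated with recombinant IGF-1R (200 μg/L), 10 mmol/L ATP, MgCl2/MnCl2 and Na3VO4 (pH 7.5) on immobilized poly(Glu-Tyr) peptide for 30 min at 24° C. Eu-anti-phosphotyrosine time-resolved fluorescence (340/615 nm) gave relative activity against no-compound and no-enzyme wells, reported as % inhibition.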

[4] = IGF-1R active recombinant enzyme

| SMILES | inhibition at 10 µM [1] [%] | inhibition at 10 µM [2] [%] | inhibition at 10 µM [3, 4] [%] | inhibition at 1 µM ([1]; 1 μmol/L) [%] | inhibition at 1 µM ([2]; 1 μmol/L) [%] | other results |
| --- | --- | --- | --- | --- | --- | --- |
| CN(C)c1ccc(C(=O)Nc2ccccc2/C=C/c2n[nH]c3ccccc23)cc1 [Compound 17, (E)-4-dimethylamino-N-{2-[2-(1H-indazol-3-yl)vinyl]phenyl}benzamide] | 115 | 127 | 98.3 |  |  |  |
| COc1cc(/C=C/c2n[nH]c3ccccc23)c(NC(=O)c2sccc2C)cc1OCCN1CCOCC1 [Compound 293, (E)-N-{2-[2-(1H-indazol-3-yl)vinyl]-4-methoxy-5-[2-(morpholin-4-yl)ethoxy]phenyl}-3-methylthiophene-2-carboxamide] |  |  | 98.9 | 110 | 119 |  |
| Cc1ccsc1C(=O)Nc1cc(C(=O)N2CCC(O)CC2)ccc1/C=C/c1n[nH]c2ccccc12 [Compound 219, (E)-N-{2-[2-(1H-indazol-3-yl)vinyl]-5-(4-hydroxypiperidin-1-ylcarbonyl)phenyl}-3-methylthiophene-2-carboxamide hydrochloride] |  |  | 99.4 | 111 | 108 |  |
| O=S(=O)(Nc1ccccc1/C=C/c1n[nH]c2ccccc12)c1ccccc1 [Compound 16, (E)-N-{2-[2-(1H-indazol-3-yl)vinyl]phenyl}benzenesulfonamide] | 64.7 | 85.2 | 59.2 |  |  |  |
| CCNC(=O)Nc1ccccc1/C=C/c1n[nH]c2ccccc12 [Compound 21, (E)-1-ethyl-3-{2-[2-(1H-indazol-3-yl)vinyl]phenyl}urea] | 114 | 94 | 88.2 |  |  |  |
| Cc1ccsc1C(=O)Nc1cc(N2CCN(C)CC2)ccc1/C=C/c1n[nH]c2ccccc12 [Compound 262, (E)-N-{2-[2-(1H-indazol-3-yl)vinyl]-5-(4-methylpiperazin-1-yl)phenyl}-3-methylthiophene-2-carboxamide] |  |  | 103 | 119 | 119 |  |
| Cn1ccnc1C(=O)Nc1ccccc1/C=C/c1n[nH]c2ccccc12 [Compound 352, (E)-N-{2-[2-(1H-indazol-3-yl)vinyl]phenyl}-1-methyl-1H-imidazole-2-carboxamide] |  |  | 103 | 108 | 84.8 |  |
| C(=C\c1n[nH]c2ccccc12)/c1ccccc1OCCc1ccccc1 [Compound 140, (E)-3-{2-[2-(2-phenylethyloxy)phenyl]vinyl}-1H-indazole] | 104 | 58.9 | 92.1 |  |  |  |
| O=C(Nc1nccs1)c1ccccc1/C=C/c1n[nH]c2ccccc12 [Compound 138, (E)-2-[2-(1H-indazol-3-yl)vinyl]-N-(thiazol-2-yl)benzamide] | 114 | 101 | 97.2 |  |  |  |
| Cc1ccsc1C(=O)Nc1cc(C(=O)NC2CCNCC2)ccc1/C=C/c1n[nH]c2ccccc12 [Compound 240, (E)-N-{2-[2-(1H-indazol-3-yl)vinyl]-5-(piperidin-4-ylcarbamoyl)phenyl}-3-methylthiophene-2-carboxamide hydrochloride] |  |  | 103 | 105 | 67 |  |
| CC(=O)NC1CCN(C(=O)c2ccc(/C=C/c3n[nH]c4ccccc34)c(NC(=O)c3sccc3C)c2)CC1 [Compound 301, (E)-N-{5-[4-(acetylamino)piperidin-1-ylcarbonyl]-2-[2-(1H-indazol-3-yl)vinyl]phenyl}-3-methylthiophene-2-carboxamide] |  |  | 98.3 | 119 | 100 |  |
| COc1cccc(C(=O)Nc2ccccc2/C=C/c2n[nH]c3ccccc23)c1 [Compound 19, (E)-N-{2-[2-(1H-indazol-3-yl)vinyl]phenyl}-3-methoxybenzamide] | 132 | 110 | 95.3 |  |  |  |
| O=C(Nc1ccccc1/C=C/c1n[nH]c2ccccc12)c1cscn1 [Compound 36, (E)-N-{2-[2-(1H-indazol-3-yl)vinyl]phenyl}thiazole-4-carboxamide] | 112 | 116 | 98.6 |  |  |  |
| O=[N+]([O-])c1ccccc1/C=C/c1n[nH]c2ccccc12 [Compound 1, (E)-3-[2-(2-nitrophenyl)vinyl]-1H-indazole] | 105 | 80.2 | 71.2 |  |  |  |
| Cc1c(C(=O)Nc2ccccc2/C=C/c2n[nH]c3ccccc23)sc2ccc(Cl)cc12 [Compound 58, (E)-5-chloro-N-{2-[2-(1H-indazol-3-yl)vinyl]phenyl}-3-methylbenzo[b]thiophene-2-carboxamide] | 69.8 | 119 | 86 |  |  |  |
| CCN(CC)CCN(CCO)C(=O)c1ccc(/C=C/c2n[nH]c3ccccc23)c(NC(=O)c2sccc2C)c1 [Compound 255, (E)-N-(5-{N-[2-(diethylamino)ethyl]-N-(2-hydroxyethyl)carbamoyl}-2-[2-(1H-indazol-3-yl)vinyl]phenyl)-3-methylthiophene-2-carboxamide] |  |  | 100 | 121 | 97.6 |  |
| Nc1ccc(C(=O)Nc2ccccc2/C=C/c2n[nH]c3ccccc23)c(Cl)c1 [Compound 84, (E)-4-amino-2-chloro-N-{2-[2-(1H-indazol-3-yl)vinyl]phenyl}benzamide] | 113 | 107 |  |  |  | inhibition at 10 µM [3]: 100% |
| CC(=O)Nc1ccc(C(=O)Nc2ccccc2/C=C/c2n[nH]c3ccccc23)s1 [Compound 68, (E)-5-acetylamino-N-{2-[2-(1H-indazol-3-yl)vinyl]phenyl}thiophene-2-carboxamide] | 114 | 112 | 97.4 |  |  |  |
| Cn1cc([N+](=O)[O-])cc1C(=O)Nc1ccccc1/C=C/c1n[nH]c2ccccc12 [Compound 52, (E)-N-{2-[2-(1H-indazol-3-yl)vinyl]phenyl}-1-methyl-4-nitro-1H-pyrrole-2-carboxamide] | 119 | 128 | 98.5 |  |  |  |
| COCCN(CCN(C)C)c1ccc(/C=C/c2n[nH]c3ccccc23)c(NC(=O)c2sccc2C)c1 [Compound 284, (E)-N-{5-[N-(2-dimethylaminoethyl)-2-(methoxyethyl)amino]-2-[2-(1H-indazol-3-yl)vinyl]phenyl}-3-methylthiophene-2-carboxamide] |  |  |  |  |  | cytostatic rate (%) H929 (1 μmol/L) ([1]; 1 μmol/L): 121.2%; cytostatic rate (%) KMS-11 (1 μmol/L) ([2]; 1 μmol/L): 130.8%; inhibitory activity (%) at 10 μmol/L [3, 4]: 97.5% |
| O=C(Nc1ccccc1/C=C/c1n[nH]c2ccccc12)c1cccc([N+](=O)[O-])c1 [Compound 64, (E)-N-{2-[2-(1H-indazol-3-yl)vinyl]phenyl}-3-nitrobenzamide] | 108 | 124 | 97 |  |  |  |
| COC1CCN(C(=O)c2ccc(/C=C/c3n[nH]c4ccccc34)c(NC(=O)c3sccc3C)c2)CC1 [Compound 120, (E)-N-{2-[2-(1H-indazol-3-yl)vinyl]-5-(4-methoxypiperidin-1-ylcarbonyl)phenyl}-3-methylthiophene-2-carboxamide] | 116 | 114 |  |  |  | inhibition at 10 µM [3]: 97.5% |
| O=C(Nc1ccccc1/C=C/c1n[nH]c2ccccc12)c1ccncc1 [Compound 10, (E)-N-{2-[2-(1H-indazol-3-yl)vinyl]phenyl}isonicotinamide] | 113 | 102 | 99.1 |  |  |  |
